Assay results reported in patent US12447167B2, “GM-CSF-producing t-cell control agent and Th1/Th2 immune balance regulator” (National Center of Neurology and Psychiatry, priority 2014, dated 2025).

Experiment: Disposition after single oral dose, humans (normal subjects)
Format: in vivo, human
Design: concentration in blood: unit not given here
Conditions: for AUC(0-inf) / AUC(0-t) / half-life / Cmax / Tmax: human; for AUC(0-inf) / AUC(0-t) / half-life: blood; for AUC(0-inf) / AUC(0-t) / half-life / Cmax / Tmax / concentration in blood: normal subjects; for Cmax / Tmax: plasma
Protocol: After a single dose of compound 31 labeled with ^14C was orally administered at a predetermined dose to each of a male mouse, a male rat, and a male cynomolgus monkey under fasting conditions, the concentration in blood was measured after a lapse of a given time, and parameters such as maximum plasma concentration Cmax, time Tmax to reach the maximum plasma concentration, half-life t1/2, area under curve AUC0-∞, mean retention time MRT0-∞, and bioavailability BA were calculated. The concentration in blood in humans (normal subjects) was measured and each of the parameters was calculated, in the similar manner as above except that ^14C-unlabeled compound 31 was used.
In the tables, “N.D.” means not detected.
In this context, assuming the body weights of the humans were 60 kg, the doses were corrected to be the same, and the value of AUC0-∞ was compared between the mouse, the rat, and the cynomolgus monkey, and the humans. […] Specifically, AUC0-∞ for the humans was 2.72 to 8.94 times AUC0-∞ for the mouse, 4.77 to 15.7 times AUC0-∞ for the rat, and 6.69 to 22.0 times AUC0-∞ for the cynomolgus monkey.

CCCCCCCCCCCCCCCCCCCCCCCC(=O)NC(COC1OC(CO)C(O)C(O)C1O)[C@H](O)C(O)CCCCC (stereo in doubt) [compound 31, (2S,3S,4R)-1-O-(α-D-galactosyl)-2-(N-tetracosanoylamino)-1,3,4-nonanetriol]
species difference (fold) of dose-corrected AUC0-∞, human vs cynomolgus monkey (human 0.3 mg/body (60 kg assumed) vs cynomolgus monkey 10 mg/kg): 19.70 fold
species difference (fold) of dose-corrected AUC0-∞, human vs mouse (human 0.3 mg/body (60 kg assumed) vs mouse 5 mg/kg): 8.01 fold
species difference (fold) of dose-corrected AUC0-∞, human vs rat (human 0.3 mg/body (60 kg assumed) vs rat 10 mg/kg): 14.05 fold
species difference (fold) of dose-corrected AUC0-∞, human vs cynomolgus monkey (human 1 mg/body (60 kg assumed) vs cynomolgus monkey 10 mg/kg): 21.99 fold
species difference (fold) of dose-corrected AUC0-∞, human vs mouse (human 1 mg/body (60 kg assumed) vs mouse 5 mg/kg): 8.94 fold
species difference (fold) of dose-corrected AUC0-∞, human vs rat (human 1 mg/body (60 kg assumed) vs rat 10 mg/kg): 15.69 fold
species difference (fold) of dose-corrected AUC0-∞, human vs cynomolgus monkey (human 3 mg/body (60 kg assumed) vs cynomolgus monkey 10 mg/kg): 12.29 fold
species difference (fold) of dose-corrected AUC0-∞, human vs mouse (human 3 mg/body (60 kg assumed) vs mouse 5 mg/kg): 5.00 fold
species difference (fold) of dose-corrected AUC0-∞, human vs rat (human 3 mg/body (60 kg assumed) vs rat 10 mg/kg): 8.77 fold
species difference (fold) of dose-corrected AUC0-∞, human vs cynomolgus monkey (human 10 mg/body (60 kg assumed) vs cynomolgus monkey 10 mg/kg): 9.62 fold
species difference (fold) of dose-corrected AUC0-∞, human vs mouse (human 10 mg/body (60 kg assumed) vs mouse 5 mg/kg): 3.91 fold
species difference (fold) of dose-corrected AUC0-∞, human vs rat (human 10 mg/body (60 kg assumed) vs rat 10 mg/kg): 6.86 fold
species difference (fold) of dose-corrected AUC0-∞, human vs cynomolgus monkey (human 30 mg/body (60 kg assumed) vs cynomolgus monkey 10 mg/kg): 6.69 fold
species difference (fold) of dose-corrected AUC0-∞, human vs mouse (human 30 mg/body (60 kg assumed) vs mouse 5 mg/kg): 2.72 fold
species difference (fold) of dose-corrected AUC0-∞, human vs rat (human 30 mg/body (60 kg assumed) vs rat 10 mg/kg): 4.77 fold
AUC(0-inf) (0.3 mg/body oral): 23.4 ng·h/mL
AUC(0-t) (0.3 mg/body oral): 11.7 ng·h/mL
half-life (0.3 mg/body oral): 1280 min
AUC(0-inf) (1 mg/body oral): 87.1 ng·h/mL
AUC(0-t) (1 mg/body oral): 63.4 ng·h/mL
half-life (1 mg/body oral): 2660 min
AUC(0-inf) (3 mg/body oral): 146 ng·h/mL
AUC(0-t) (3 mg/body oral): 121 ng·h/mL
half-life (3 mg/body oral): 2870 min
AUC(0-inf) (10 mg/body oral): 381 ng·h/mL
AUC(0-t) (10 mg/body oral): 324 ng·h/mL
half-life (10 mg/body oral): 2720 min
AUC(0-inf) (30 mg/body oral): 795 ng·h/mL
AUC(0-t) (30 mg/body oral): 657 ng·h/mL
half-life (30 mg/body oral): 3220 min
Cmax (0.3 mg/body oral): 0.629 ng/mL
Tmax (0.3 mg/body oral): 13 h
Cmax (1 mg/body oral): 1.49 ng/mL
Tmax (1 mg/body oral): 20.7 h
Cmax (3 mg/body oral): 2.11 ng/mL
Tmax (3 mg/body oral): 28.3 h
Cmax (10 mg/body oral): 6.01 ng/mL
Tmax (10 mg/body oral): 26.3 h
Cmax (30 mg/body oral): 9.81 ng/mL
Tmax (30 mg/body oral): 28.3 h
concentration in blood (0.3 mg/body oral, 6 h): 0.368
concentration in blood (0.3 mg/body oral, 13 h): 0.629
concentration in blood (0.3 mg/body oral, 21 h): 0.365
concentration in blood (0.3 mg/body oral, 24 h): 0.31
concentration in blood (0.3 mg/body oral, 30 h): 0.382
concentration in blood (1 mg/body oral, 6 h): 0.368
concentration in blood (1 mg/body oral, 13 h): 1.39
concentration in blood (1 mg/body oral, 21 h): 1.04
concentration in blood (1 mg/body oral, 24 h): 0.98
concentration in blood (1 mg/body oral, 30 h): 0.961
concentration in blood (1 mg/body oral, 36 h): 1.01
concentration in blood (1 mg/body oral, 48 h): 0.719
concentration in blood (1 mg/body oral, 72 h): 0.484
concentration in blood (1 mg/body oral, 96 h): 0.224
concentration in blood (3 mg/body oral, 6 h): 0.337
concentration in blood (3 mg/body oral, 13 h): 1.13
concentration in blood (3 mg/body oral, 21 h): 1.33
concentration in blood (3 mg/body oral, 24 h): 1.33
concentration in blood (3 mg/body oral, 30 h): 1.7
concentration in blood (3 mg/body oral, 36 h): 1.99
concentration in blood (3 mg/body oral, 48 h): 1.37
concentration in blood (3 mg/body oral, 72 h): 0.838
concentration in blood (3 mg/body oral, 96 h): 0.549
concentration in blood (3 mg/body oral, 144 h): 0.266
concentration in blood (10 mg/body oral, 6 h): 2.01
concentration in blood (10 mg/body oral, 13 h): 3.32
concentration in blood (10 mg/body oral, 21 h): 3.15
concentration in blood (10 mg/body oral, 24 h): 3.33
concentration in blood (10 mg/body oral, 30 h): 3.76
concentration in blood (10 mg/body oral, 36 h): 5.37
concentration in blood (10 mg/body oral, 48 h): 3.66
concentration in blood (10 mg/body oral, 72 h): 2.23
concentration in blood (10 mg/body oral, 96 h): 1.42
concentration in blood (10 mg/body oral, 144 h): 0.689
concentration in blood (30 mg/body oral, 6 h): 2.82
concentration in blood (30 mg/body oral, 13 h): 6.65
concentration in blood (30 mg/body oral, 21 h): 6.98
concentration in blood (30 mg/body oral, 24 h): 7.47
concentration in blood (30 mg/body oral, 30 h): 8.08
concentration in blood (30 mg/body oral, 36 h): 9.46
concentration in blood (30 mg/body oral, 48 h): 6.58
concentration in blood (30 mg/body oral, 72 h): 4.65
concentration in blood (30 mg/body oral, 96 h): 3.05
concentration in blood (30 mg/body oral, 144 h): 1.82
